Source: patent US20150352108A1, “AMINO-PYRIMIDINE COMPOUNDS AS INHIBITORS OF TBK1 AND/OR IKK EPSILON” (Alzheimer's Institute of America, priority 2009, published 2015)

Target: T1, IKKε (Homo sapiens, UniProt Q14164)
T1 construct: His-tag; made in house; host or cells: Sf9 insect cells
T1 sequence (Q14164 1-716): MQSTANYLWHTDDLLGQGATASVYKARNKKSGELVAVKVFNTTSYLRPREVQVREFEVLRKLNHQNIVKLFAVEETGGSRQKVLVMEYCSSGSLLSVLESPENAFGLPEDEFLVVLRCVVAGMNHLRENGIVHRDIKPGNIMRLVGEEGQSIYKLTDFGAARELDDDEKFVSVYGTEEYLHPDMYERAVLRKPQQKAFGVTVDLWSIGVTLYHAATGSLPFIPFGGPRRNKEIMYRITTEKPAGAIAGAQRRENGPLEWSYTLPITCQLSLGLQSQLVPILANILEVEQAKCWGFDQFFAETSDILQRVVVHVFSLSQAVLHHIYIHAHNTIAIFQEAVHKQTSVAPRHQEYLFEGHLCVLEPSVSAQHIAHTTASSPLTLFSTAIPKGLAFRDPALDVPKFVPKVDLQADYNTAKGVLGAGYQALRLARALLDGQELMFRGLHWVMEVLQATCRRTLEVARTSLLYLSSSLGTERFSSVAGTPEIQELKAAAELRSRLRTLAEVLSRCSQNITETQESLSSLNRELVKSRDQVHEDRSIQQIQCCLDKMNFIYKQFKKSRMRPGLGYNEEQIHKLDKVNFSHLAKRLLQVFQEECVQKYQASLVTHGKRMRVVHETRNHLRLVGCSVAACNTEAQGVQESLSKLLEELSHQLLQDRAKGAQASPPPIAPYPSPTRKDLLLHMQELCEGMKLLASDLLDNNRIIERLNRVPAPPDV
Assay: In-vitro IKKε kinase assay ([γ33]ATP filter-plate)
Assay type: biochemical
Settings: text bins; read-out: IC50 for inhibition of the kinase activity of IKKε
Protocol: IKKε enzyme was produced as a His-tag fusion in Sf9 cells and used at a final concentration of […]. TBK1 enzyme was produced as a His-tag fusion in Sf9 cells and used at a final concentration of 0.1 μg/ml. Kinase reactions were carried out in reaction buffer using myelin basic protein (Millipore, Ballerica, Mass.) or casein (Sigma, St. Louis, Mo.) as substrate at an ATP concentration equal to twice the Km,ATP value for each enzyme, corresponding to 32 μM ATP for IKKε and 60 μM ATP for TBK1, in the presence of 0.3 μCi [γ^33]ATP (PerkinElmer, Waltham, Mass.). Final enzyme concentrations were 0.1 or 0.015 μg/ml (IKKε) and 0.1 or 0.02 μg/ml (TBK1), representing “normal” and “sensitized” assay conditions respectively. Test compounds (or DMSO solvent as a control) were added prior to initiation of the reactions. Reactions were terminated after 30-45 minutes by adding 3% phosphoric acid. Terminated reactions were transferred to P-81 cellulose phosphate filterplates (Whatman, Inc., Piscataway, N.J.) and washed with 1% phosphoric acid on a vacuum apparatus. After air drying, scintillant (PerkinElmer, Waltham, Mass.) was added and the plates were read on a PerkinElmer TopCount NXT instrument. Counts were normalized to DMSO controls after background subtraction.

| Structure (SMILES) | IC50 [nM] |
| --- | --- |
| N#Cc1cc(-c2ccnc(Nc3ccc(N4CCOCC4)cc3)n2)ccc1OCC1CCN(C(=O)C2C[C@H]2F)CC1 (stereo partly drawn) [Example 108, 2-[(1-{[(2R)-2-fluorocyclopropyl]carbonyl}piperidin-4-yl)methoxy]-5-(2-{[4-(morpholin-4-yl)phenyl]amino}pyrimidin-4-yl)benzonitrile] | 50 to 500 |
| N#Cc1cc(-c2ccnc(Nc3ccc(N4CCOCC4)cc3)n2)ccc1OC1CCN(C(=O)[C@@H](O)C(F)(F)F)CC1 [Example 113, 5-(2-{[4-(morpholin-4-yl)phenyl]amino}pyrimidin-4-yl)-2-({1-[(2R)-3,3,3-trifluoro-2-hydroxypropanoyl]piperidin-4-yl}oxy)benzonitrile] | 5 to 50 |
| N#Cc1cc(-c2ccnc(Nc3ccc(N4CCOCC4)c(C(F)(F)F)c3)n2)ccc1OC1CCOCC1 [Example 120, 5-(2-{[4-(morpholin-4-yl)-3-(trifluoromethyl)phenyl]amino}pyrimidin-4-yl)-2-(tetrahydro-2H-pyran-4-yloxy)benzonitrile] | 5 to 50 |
| CC(=O)N1CC(COc2ccc(-c3ccnc(Nc4ccc(N5CCOCC5)cc4)n3)cc2C#N)C1 [Example 125, 2-[(1-acetylazetidin-3-yl)methoxy]-5-(2-{[4-(morpholin-4-yl)phenyl]amino}pyrimidin-4-yl)benzonitrile] | 50 to 500 |
| N#Cc1cc(-c2ccnc(Nc3ccc(N4CCOCC4)cc3)n2)ccc1OC1CN(C(=O)CO)C1 [Example 131, 2-{[1-(hydroxyacetyl)azetidin-3-yl]oxy}-5-(2-{[4-(morpholin-4-yl)phenyl]amino}pyrimidin-4-yl)benzonitrile] | 50 to 500 |
| N#Cc1cc(-c2ccnc(Nc3ccc(N4CCOCC4)cc3)n2)ccc1SC1CCCCC1 [Example 137, 2-(cyclohexylsulfanyl)-5-(2-{[4-(morpholin-4-yl)phenyl]amino}pyrimidin-4-yl)benzonitrile] | 50 to 500 |
| N#Cc1cc(-c2ccnc(Nc3ccc(N4CCOCC4)cc3)n2)ccc1OC1CCN(C(=O)Cn2ccnc2)CC1 [Example 139, 2-{[1-(1H-imidazol-1-ylacetyl)piperidin-4-yl]oxy}-5-(2-{[4-(morpholin-4-yl)phenyl]amino}pyrimidin-4-yl)benzonitrile] | 5 to 50 |
| C[C@@H](O)C(=O)N1CCC(Oc2ccc(-c3ccnc(Nc4ccc(N5CCOCC5)cc4)n3)cc2C#N)CC1 [Example 140, 2-({1-[(2R)-2-hydroxypropanoyl]piperidin-4-yl}oxy)-5-(2-{[4-(morpholin-4-yl)phenyl]amino}pyrimidin-4-yl)benzonitrile] | 5 to 50 |
| C[C@@H](O)C(=O)N1CCC(Oc2ccc(-c3ccnc(Nc4ccc(N5CCOCC5)cc4)n3)cc2C#N)C1 (stereo partly drawn) [Example 142, 2-({1-[(2R)-2-hydroxypropanoyl]pyrrolidin-3-yl}oxy)-5-(2-{[4-(morpholin-4-yl)phenyl]amino}pyrimidin-4-yl)benzonitrile] | 50 to 500 |
| CC(=O)OC(C)C(=O)Nc1ccc(-c2ccnc(Nc3ccc(N4CCOCC4)cc3)n2)cc1C#N (centres unmarked) [Example 147, 1-{[2-cyano-4-(2-{[4-(morpholin-4-yl)phenyl]amino}pyrimidin-4-yl)phenyl]amino}-1-oxopropan-2-yl acetate] | 50 to 500 |
| N#Cc1cc(-c2ccnc(Nc3ccc(N4CCOCC4)cc3)n2)ccc1OC1CCN(C(=O)C2CC2)C1 (centres unmarked) [Example 151, 2-{[1-(cyclopropylcarbonyl)pyrrolidin-3-yl]oxy}-5-(2-{[4-(morpholin-4-yl)phenyl]amino}pyrimidin-4-yl)benzonitrile] | 50 to 500 |
| CC(=O)N1CCC(CCOc2ccc(-c3ccnc(Nc4ccc(N5CCOCC5)cc4)n3)cc2C#N)CC1 [Example 156, 2-[2-(1-acetylpiperidin-4-yl)ethoxy]-5-(2-{[4-(morpholin-4-yl)phenyl}amino}pyrimidin-4-yl)benzonitrile] | 5 to 50 |
| CN(C)CC(=O)N1CCC(Oc2ccc(-c3ccnc(Nc4ccc(N5CCOCC5)cc4)n3)cc2C#N)CC1 [Example 160, 2-{[1-(N,N-dimethylglycyl)piperidin-4-yl]oxy}-5-(2-{[4-(morpholin-4-yl)phenyl]amino}pyrimidin-4-yl)benzonitrile] | 50 to 500 |
| CC(=O)N1CCCC(COc2ccc(-c3ccnc(Nc4ccc(N5CCOCC5)cc4)n3)cc2C#N)C1 (centres unmarked) [Example 161] | 5 to 50 |
| CN(C)C(=O)N1CCC(Oc2ccc(-c3ccnc(Nc4ccc(N5CCOCC5)cc4)n3)cc2C#N)CC1 [Example 166, 4-[2-Cyano-4-(2-{[4-(morpholin-4-yl)phenyl]amino}pyrimidin-4-yl)phenoxy]-N,N-dimethylpiperidine-1-carboxamide] | 50 to 500 |
| CS(=O)(=O)N(c1ccc(-c2ccnc(Nc3ccc(N4CCOCC4)cc3)n2)cc1C#N)S(C)(=O)=O [Example 167, N-[2-Cyano-4-(2-{[4-(morpholin-4-yl)phenyl]amino}pyrimidin-4-yl)phenyl]-N-(methylsulfonyl) methanesulfonamide] | 5 to 50 |
| CC(C)COC(=O)Nc1ccc(-c2ccnc(Nc3ccc(N4CCOCC4)cc3)n2)cc1C#N [Example 180, 2-methylpropyl [2-cyano-4-(2-{[4-(morpholin-4-yl)phenyl]amino}pyrimidin-4-yl)phenyl]carbamate] | 50 to 500 |
| N#Cc1cc(-c2ccnc(Nc3ccc(N4CCOCC4)cc3)n2)ccc1OCC1CN(C(=O)CO)C1 [Example 188, 2-{[1-(hydroxyacetyl)azetidin-3-yl]methoxy}-5-(2-{[4-(morpholin-4-yl)phenyl]amino}pyrimidin-4-yl)benzonitrile] | 5 to 50 |
| C[C@H](O)C(=O)N1CCC(Oc2ccc(-c3ccnc(Nc4ccc(N5CCOCC5)cc4)n3)cc2C#N)C1 (stereo partly drawn) [Example 192, 2-({1-[(2S)-2-hydroxypropanoyl]pyrrolidin-3-yl}oxy)-5-(2-{[4-(morpholin-4-yl)phenyl]amino}pyrimidin-4-yl)benzonitrile] | 5 to 50 |
| CC(=O)N1CCC(Oc2ccc(-c3ccnc(Nc4ccc(N5CCOCC5)cc4)n3)cc2C#N)C1 (centres unmarked) [Example 195, 2-[(1-Acetylpyrrolidin-3-yl)oxy]-5-(2-{[4-(morpholin-4-yl)phenyl]amino}pyrimidin-4-yl)benzonitrile] | 5 to 50 |

Results, then the compound that gave them:

| IC50 [nM] | Structure (SMILES) |
| --- | --- |
| 5 to 50 | COc1ccc(Nc2nccc(-c3ccc(OCc4ccccc4)c(C#N)c3)n2)cc1OC [Example 106, 2-(Benzyloxy)-5-{2-[(3,4-dimethoxyphenyl)amino]pyrimidin-4-yl}benzonitrile] |
| 50 to 500 | COc1ccc(Nc2nccc(-c3cc(C#N)cc(OCc4ccccc4)c3)n2)cc1OC [Example 145, 3-(Benzyloxy)-5-{2-[(3,4-dimethoxyphenyl)amino]pyrimidin-4-yl}benzonitrile] |
| 5 to 50 | N#Cc1cc(-c2ccnc(Nc3cccc(S(N)(=O)=O)c3)n2)ccc1OC1CCOCC1 [Example 146, 3-({4-[3-cyano-4-(tetrahydro-2H-pyran-4-yloxy)phenyl]pyrimidin-2-yl}amino) benzenesulfonamide] |
| 50 to 500 | CC(C)C(=O)NCCOc1ccc(-c2ccnc(Nc3ccc(N4CCOCC4)cc3)n2)cc1C#N [Example 153, N-{2-[2-cyano-4-(2-{[4-(morpholin-4-yl)phenyl]amino}pyrimidin-4-yl)phenoxy]ethyl}-2-methylpropanamide] |
| 50 to 500 | COc1ccc(Nc2nccc(-c3ccc(OC(C)c4ccccc4)c(C#N)c3)n2)cc1OC (centres unmarked) [Example 163] |
| 5 to 50 | COc1ccc(-c2ccnc(Nc3cc(CNCCO)c(OC)c(OC)c3)n2)cc1C#N [Example 173, 5-{2-[(3-{[(2-Hydroxyethyl)amino]methyl}-4,5-dimethoxyphenyl)amino]pyrimidin-4-yl}-2-methoxybenzonitrile] |
| 5 to 50 | COc1ccc(-c2ccnc(Nc3cc(CN(C)C)c(OC)c(OC)c3)n2)cc1C#N [Example 174, 5-[2-({3-[(Dimethylamino)methyl]-4,5-dimethoxyphenyl}amino)pyrimidin-4-yl]-2-methoxybenzonitrile] |
| 5 to 50 | COc1ccc(Nc2nccc(-c3ccc(Cl)c(C#N)c3)n2)cc1OC [Example 182, 2-Chloro-5-{2-[(3,4-dimethoxyphenyl)amino]pyrimidin-4-yl}benzonitrile] |
| 5 to 50 | CC(=O)Nc1cccc(Nc2nccc(-c3ccc(OCc4ccccc4)c(C#N)c3)n2)c1 [Example 185, N-[3-({4-[4-(Benzyloxy)-3-cyanophenyl]pyrimidin-2-yl}amino)phenyl] acetamide] |
